Values of other authors, collected in patent publication US20030049320A1, “Novel in-situ forming controlled release microcarrier delivery system” (priority 2000, published 2003).

Settings: intravenously as a solution, reported in the literature

CC(=O)O[C@H]1C(=O)[C@@]2(C)[C@H]([C@H](OC(=O)c3ccccc3)[C@]3(O)C[C@H](OC(=O)[C@H](O)[C@@H](NC(=O)c4ccccc4)c4ccccc4)C(C)=C1C3(C)C)[C@]1(OC(C)=O)CO[C@@H]1C[C@@H]2O [paclitaxel]
Plasma elimination half-life of paclitaxel: 1.1 h
